Results published in US9080214B2, “Genetic markers for efficacy of iloperidone in the treatment of psychotic symptoms” (Vanda Pharmaceuticals, Inc., priority 2007, dated 2015).

System: individuals diagnosed with schizophrenia
Assay: Change in PANSS-T by SNP genotype, patients on iloperidone 24 mg/day b.i.d. for 28 days (MMRM, LOCF)
Assay type: in vivo, human
Source text: Earlier studies investigated an association between a polymorphism in the CNTF gene and iloperidone efficacy as well as associations between CYP2D6 and KCNQ1 genotypes and changes in QT interval following the administration of iloperidone. The present study involved the genotyping of DNA samples collected from 426 individuals diagnosed with schizophrenia in an attempt to identify additional SNPs associated with iloperidone efficacy. Each sample was genotyped at more than 500,000 SNP loci using the GeneChip® Human Mapping 500K Array Set (Affymetrix, Santa Clara, Calif.) and using assays developed in-house. Approximately half of the participants in the study were administered 24 mg/day of iloperidone, b.i.d., for 28 days. About 25% of the patients were administered ziprasidone. The remaining participants were administered a placebo. Three analyses of the PANSS-T were conducted. 1) A two-step approach where samples were randomly split into 2 groups of iloperidone-treated patients used to discover SNPs associated with changed in PANSS-T (Discovery phase) and a second group to confirm the 100 most significant SNPs (Confirmatory phase). 2) A one-step approach using the Last Observation Carried Forward (LOCF) PANSS-T data of all iloperidone-treated patients. For each SNP, the most parsimonious genetic model (e.g., homozygous for one allele v. all other genotypes [i.e., AA v. AB and BB], heterozygous v. homozygous [i.e., AB v. AA and BB]) was established with respect to iloperidone efficacy using a one-way analysis of variance (ANOVA). 3) A Mixed-effects Model Repeated Measures (MMRM) analysis was subsequently conducted using the best genetic model of each SNP in the MMRM model. MMRM analyses were also conducted with the PANSS subscales PANSS-P, PANSS-N, and PANSS-GP. The SNPs with a statistically significant association in all 3 analyses of PANSS-T, as well as the best of each analysis were considered significant findings and are listed below in Table 1. Results for each of these SNPs with the PANSS-T scales and with the three subscales PANSS-P, PANSS-N, and PANSS-GP are shown in Tables 2, 3, 4, and 5, respectively. As used herein, “greater iloperidone efficacy” means an improvement in PANSS-T score of at least about 20%. In the current study, this means an improvement of at least 13 points.

Structure (SMILES): COc1cc(C(C)=O)ccc1OCCCN1CCC(c2noc3cc(F)ccc23)CC1 [iloperidone, 1-[4-[3-[4-(6-fluoro-1,2-benzisoxazol-3-yl)-1-piperidinyl]propoxy]-3-methoxyphenyl]ethanone]
- mean of change in PANSS-T (SNP_A-1819750 (CREG1) genotype A_A): −18.13
- mean of change in PANSS-T (SNP_A-1819750 (CREG1) genotype A_B*): −10.74
- mean of change in PANSS-T (SNP_A-1819750 (CREG1) genotype B_B): −16.05
- mean of change in PANSS-T (SNP_A-1819750 (CREG1) genotype nonAB**): −16.72
- mean of change in PANSS-T (SNP_A-1860353 (RAP1B) genotype A_A**): −37.40
- mean of change in PANSS-T (SNP_A-1860353 (RAP1B) genotype A_B): −11.79
- mean of change in PANSS-T (SNP_A-1860353 (RAP1B) genotype B_B): −11.84
- mean of change in PANSS-T (SNP_A-1860353 (RAP1B) genotype nonAA*): −11.83
- mean of change in PANSS-T (SNP_A-1934663 genotype A_A): −18.67
- mean of change in PANSS-T (SNP_A-1934663 genotype A_B): −18.34
- mean of change in PANSS-T (SNP_A-1934663 genotype B_B*): −8.39
- mean of change in PANSS-T (SNP_A-1934663 genotype nonBB**): −18.40
- mean of change in PANSS-T (SNP_A-1973093 (KIAA0040) genotype A_A): −14.99
- mean of change in PANSS-T (SNP_A-1973093 (KIAA0040) genotype A_B*): −6.21
- mean of change in PANSS-T (SNP_A-1973093 (KIAA0040) genotype B_B): −16.73
- mean of change in PANSS-T (SNP_A-1973093 (KIAA0040) genotype nonAB**): −16.39
- mean of change in PANSS-T (SNP_A-1975928 (SLC2A9) genotype A_A): −13.09
- mean of change in PANSS-T (SNP_A-1975928 (SLC2A9) genotype A_B): −13.17
- mean of change in PANSS-T (SNP_A-1975928 (SLC2A9) genotype B_B*): 16.38
- mean of change in PANSS-T (SNP_A-1975928 (SLC2A9) genotype nonBB**): −13.11
- mean of change in PANSS-T (SNP_A-1987915 (GPR126) genotype A_A): −9.87
- mean of change in PANSS-T (SNP_A-1987915 (GPR126) genotype A_B): −9.61
- mean of change in PANSS-T (SNP_A-1987915 (GPR126) genotype B_B**): −17.29
- mean of change in PANSS-T (SNP_A-1987915 (GPR126) genotype nonBB*): −9.67
- mean of change in PANSS-T (SNP_A-2007721 (LOC58486) genotype A_A): −4.55
- mean of change in PANSS-T (SNP_A-2007721 (LOC58486) genotype A_B**): −22.64
- mean of change in PANSS-T (SNP_A-2007721 (LOC58486) genotype B_B): −9.55
- mean of change in PANSS-T (SNP_A-2007721 (LOC58486) genotype nonAB*): −9.52
- mean of change in PANSS-T (SNP_A-2044214 (HNT) genotype A_A): −15.71
- mean of change in PANSS-T (SNP_A-2044214 (HNT) genotype A_B*): −7.43
- mean of change in PANSS-T (SNP_A-2044214 (HNT) genotype B_B): −14.43
- mean of change in PANSS-T (SNP_A-2044214 (HNT) genotype nonAB**): −15.26
- mean of change in PANSS-T (SNP_A-2048427 (NPAS3) genotype A_A): −19.94
- mean of change in PANSS-T (SNP_A-2048427 (NPAS3) genotype A_B): −20.15
- mean of change in PANSS-T (SNP_A-2048427 (NPAS3) genotype B_B*): −9.20
- mean of change in PANSS-T (SNP_A-2048427 (NPAS3) genotype nonBB**): −20.12
- mean of change in PANSS-T (SNP_A-2070454 (NKX2-5) genotype A_A): −9.88
- mean of change in PANSS-T (SNP_A-2070454 (NKX2-5) genotype A_B): −10.39
- mean of change in PANSS-T (SNP_A-2070454 (NKX2-5) genotype B_B**): −18.31
- mean of change in PANSS-T (SNP_A-2070454 (NKX2-5) genotype nonBB*): −10.23
- mean of change in PANSS-T (SNP_A-2076797 (NUDT9P1) genotype A_A): −7.14
- mean of change in PANSS-T (SNP_A-2076797 (NUDT9P1) genotype A_B**): −18.73
- mean of change in PANSS-T (SNP_A-2076797 (NUDT9P1) genotype B_B): −6.04
- mean of change in PANSS-T (SNP_A-2076797 (NUDT9P1) genotype nonAB*): −6.61
- mean of change in PANSS-T (SNP_A-2103099 (HTR1A) genotype A_A): −17.43
- mean of change in PANSS-T (SNP_A-2103099 (HTR1A) genotype A_B*): −8.31
- mean of change in PANSS-T (SNP_A-2103099 (HTR1A) genotype B_B): −16.12
- mean of change in PANSS-T (SNP_A-2103099 (HTR1A) genotype nonAB**): −16.60
- mean of change in PANSS-T (SNP_A-2120958 genotype A_A): −13.95
- mean of change in PANSS-T (SNP_A-2120958 genotype A_B): −13.71
- mean of change in PANSS-T (SNP_A-2120958 genotype B_B*): 2.48
- mean of change in PANSS-T (SNP_A-2120958 genotype nonBB**): −13.85
- mean of change in PANSS-T (SNP_A-2170121 (C6) genotype A_A): −8.94
- mean of change in PANSS-T (SNP_A-2170121 (C6) genotype A_B**): −21.93
- mean of change in PANSS-T (SNP_A-2170121 (C6) genotype B_B): −11.50
- mean of change in PANSS-T (SNP_A-2170121 (C6) genotype nonAB*): −9.17
- mean of change in PANSS-T (SNP_A-2274533 (LZTS1) genotype A_A**): −15.95
- mean of change in PANSS-T (SNP_A-2274533 (LZTS1) genotype A_B): −6.04
- mean of change in PANSS-T (SNP_A-2274533 (LZTS1) genotype B_B): −6.21
- mean of change in PANSS-T (SNP_A-2274533 (LZTS1) genotype nonAA*): −6.08
- mean of change in PANSS-T (SNP_A-2283283 (XKR4) genotype A_A*): −3.30
- mean of change in PANSS-T (SNP_A-2283283 (XKR4) genotype A_B): −14.57
- mean of change in PANSS-T (SNP_A-2283283 (XKR4) genotype B_B): −15.66
- mean of change in PANSS-T (SNP_A-2283283 (XKR4) genotype nonAA**): −15.02
- mean of change in PANSS-T (SNP_A-2284243 (GRIA4) genotype A_A): −15.30
- mean of change in PANSS-T (SNP_A-2284243 (GRIA4) genotype A_B): −15.17
- mean of change in PANSS-T (SNP_A-2284243 (GRIA4) genotype B_B*): −3.30
- mean of change in PANSS-T (SNP_A-2284243 (GRIA4) genotype nonBB**): −15.22
- mean of change in PANSS-T (SNP_A-4204396 (CDH13) genotype A_A): −13.72
- mean of change in PANSS-T (SNP_A-4204396 (CDH13) genotype A_B): −14.04
- mean of change in PANSS-T (SNP_A-4204396 (CDH13) genotype B_B*): 4.89
- mean of change in PANSS-T (SNP_A-4204396 (CDH13) genotype nonBB**): −13.84
- mean of change in PANSS-T (SNP_A-4212785 (PPP1R3B) genotype A_A*): 25.90
- mean of change in PANSS-T (SNP_A-4212785 (PPP1R3B) genotype A_B): −13.66
- mean of change in PANSS-T (SNP_A-4212785 (PPP1R3B) genotype B_B): −13.56
- mean of change in PANSS-T (SNP_A-4212785 (PPP1R3B) genotype nonAA**): −13.60
- mean of change in PANSS-T (SNP_A-4230979 (ASB3) genotype A_A): −6.70
- mean of change in PANSS-T (SNP_A-4230979 (ASB3) genotype A_B): −8.77
- mean of change in PANSS-T (SNP_A-4230979 (ASB3) genotype B_B**): −18.82
- mean of change in PANSS-T (SNP_A-4230979 (ASB3) genotype nonBB*): −8.34
- mean of change in PANSS-T (SNP_A-4256833 (MLCK) genotype A_A): −15.19
- mean of change in PANSS-T (SNP_A-4256833 (MLCK) genotype A_B*): −6.20
- mean of change in PANSS-T (SNP_A-4256833 (MLCK) genotype B_B): −15.15
- mean of change in PANSS-T (SNP_A-4256833 (MLCK) genotype nonAB**): −15.15
- mean of change in PANSS-T (SNP_A-4258279 (RRM1) genotype A_A): −13.42
- mean of change in PANSS-T (SNP_A-4258279 (RRM1) genotype A_B*): −2.55
- mean of change in PANSS-T (SNP_A-4258279 (RRM1) genotype B_B): −14.72
- mean of change in PANSS-T (SNP_A-4258279 (RRM1) genotype nonAB**): −14.70
